In one test the target is T1, KRas^G12D (Homo sapiens, UniProt P01116, G12D).
T1 construct: Biotinylated KRas (corresponding to amino acids 1-169, produced at Accelegan Inc.); biotin (biotinylated); purchased Accelegan Inc
Kind of test: KRas binding assay (TR-FRET tracer displacement), KRas G12D.

The test system of test [1] is KRas-mediated phosphorylation of ERK in PSN1 cells. Description: Inhibition of KRas-mediated phosphorylation of ERK (Cisbio HTRF pERK), PSN1 cells. To be noted: Homo sapiens. It counts as cell-based. Put shortly: (§1)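 HTRF pERK read-out; 6,000 cells/well, RPMI_10% FBS, overnight 37° C./5% CO2; 4 h covered incubation at RT before reading.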
For orientation: In TR-FRET formats the signal depends on donor and acceptor labels being close together.

Test [2] has as its system KRas-mediated phosphorylation of ERK in H727 cells. Kind of test: Inhibition of KRas-mediated phosphorylation of ERK (Cisbio HTRF pERK), H727 cells. It counts as cell-based. To be noted: Homo sapiens, NCI-H727, H727 cells; HTRF pERK. Put shortly: (§2)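 Phosphorylated ERK was quantified by HTRF using d2-conjugate and Cryptate antibodies added to lysates for 2 hrs at room temperature.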

In another test the target is T2, KRas^G12R (Homo sapiens, UniProt P01116, G12R).
T2 construct: Biotinylated KRas (corresponding to amino acids 1-169, produced at Accelegan Inc.); biotin (biotinylated); purchased Accelegan Inc
T2 sequence (P01116 1-169 isoform P01116-2 G12R): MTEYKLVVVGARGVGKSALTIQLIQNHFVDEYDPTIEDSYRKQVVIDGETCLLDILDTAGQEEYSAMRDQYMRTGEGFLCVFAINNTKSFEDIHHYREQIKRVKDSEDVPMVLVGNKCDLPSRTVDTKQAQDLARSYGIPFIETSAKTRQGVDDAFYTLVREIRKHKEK
Description: KRas binding assay (TR-FRET tracer displacement), KRas G12R.

The test system of test [3] is KRas-mediated phosphorylation of ERK in H460 cells. Description: Inhibition of KRas-mediated phosphorylation of ERK (Cisbio HTRF pERK), H460 cells. It counts as cell-based. To be noted: Homo sapiens; for inhibition at 0.1 µM: NCI-H460, 3 h, single point, 100 nM compound, 3 hrs; for IC50: NCI-H460, HTRF pERK. The procedure, abridged: as §2
In test [4] the test system is KRas-mediated phosphorylation of ERK in AsPC-1 cells. Kind of test: Inhibition of KRas-mediated phosphorylation of ERK (Cisbio HTRF pERK), AsPC-1 cells. The format is cell-based. To be noted: Homo sapiens, ASPC1, AsPC-1 cells; HTRF pERK. The procedure, abridged: as §2
A further test deals with T3, KRas^G12V (Homo sapiens, UniProt P01116, G12V).
T3 construct: Biotinylated KRas (corresponding to amino acids 1-169, produced at Accelegan Inc.); biotin (biotinylated); purchased Accelegan Inc
T3 sequence (P01116 1-169 isoform P01116-2 G12V): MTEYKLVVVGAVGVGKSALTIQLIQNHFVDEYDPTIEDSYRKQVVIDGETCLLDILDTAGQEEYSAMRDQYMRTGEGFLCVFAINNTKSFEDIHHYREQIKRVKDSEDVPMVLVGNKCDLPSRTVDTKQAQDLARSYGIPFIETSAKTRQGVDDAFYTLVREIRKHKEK
Description: KRas binding assay (TR-FRET tracer displacement), KRas G12V.

The subject of test [5] is KRas-mediated phosphorylation of ERK in MKN1 cells. Kind of test: Inhibition of KRas-mediated phosphorylation of ERK (Cisbio HTRF pERK), MKN1 cells. It counts as cell-based. To be noted: Homo sapiens, MKN-1. The procedure, abridged: as §1
The subject of test [6] is KRas-mediated phosphorylation of ERK in HCT116 cells. Kind of test: Inhibition of KRas-mediated phosphorylation of ERK (Cisbio HTRF pERK), HCT116 cells. The format is cell-based. The settings on record: Homo sapiens; for inhibition at 0.1 µM: HCT-116, 3 h, single point, 100 nM compound, 3 hrs; for IC50: HCT-116, HTRF pERK. Put shortly: (§3)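 A cell-based HTRF pERK assay: ten-point, threefold titrations beginning at 10 uM were applied for 3 hrs, with 0.2 uM Trametinib wells as the minimum control. Cells were lysed cold, and lysate was incubated with the antibody pair for 2 hrs before reading.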

For test [7], the system named is KRas-mediated phosphorylation of ERK in A549 cells. Description: Inhibition of KRas-mediated phosphorylation of ERK (Cisbio HTRF pERK), A549 cells. It counts as cell-based. To be noted: Homo sapiens, HTRF pERK. Put shortly:
as §3

The values below come from patent US20260015350A1, “AZAQUINAZOLINE PAN-KRAS INHIBITORS” (Mirati Therapeutics, Inc., priority 2022, published 2026).

The structures appear in SMILES notation.

T1 sequence (P01116 1-169 isoform P01116-2 G12D): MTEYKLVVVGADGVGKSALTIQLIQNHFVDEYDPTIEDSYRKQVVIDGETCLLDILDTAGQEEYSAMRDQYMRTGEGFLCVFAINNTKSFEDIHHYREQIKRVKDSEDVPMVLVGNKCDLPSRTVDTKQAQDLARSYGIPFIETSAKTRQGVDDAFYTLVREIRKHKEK

What is called IC50 is the midpoint of a concentration-inhibition curve. Higher therefore signals weaker potency. In general, inhibition refers to the relative decrease from the control value, in per cent. Consider `CCc1c(F)ccc2cc(O)cc(-c3ncc4c(N5CCCC(C6(O)CCC6)C5)nc(OC[C@@]56CCCN5C[C@H](F)C6)nc4c3F)c12` (stereo partly drawn) [Example 593, 5-ethyl-6-fluoro-4-(8-fluoro-2-(((2R,7aS)-2-fluorotetrahydro-1H-pyrrolizin-7a(5H)-yl)methoxy)-4-(3-(1-hydroxycyclobutyl)piperidin-1-yl)pyrido[4,3-d]pyrimidin-7-yl)naphthalen-2-ol], for which the half-inhibitory concentration (IC50) was 72 nM on KRas^G12D; > 10000 nM in [1]; 391 nM in test [2]; 7 nM on KRas^G12R; 1230 nM in test [4]; 10 nM on KRas^G12V. This molecule showed an IC50 in [5] of 293 nM. In addition, the inhibition at 0.1 µM is 0% in [3] and -4% in test [6].
On to `CCc1c(F)ccc2cc(O)cc(-c3ncc4c(/C=C/c5ccnn5C)nc(OC[C@@]56CCCN5C[C@H](F)C6)nc4c3F)c12` [Example 543, 5-ethyl-6-fluoro-4-(8-fluoro-2-(((2R,7aS)-2-fluorotetrahydro-1H-pyrrolizin-7a(5H)-yl)methoxy)-4-((E)-2-(1-methyl-1H-pyrazol-5-yl)vinyl)pyrido[4,3-d]pyrimidin-7-yl)naphthalen-2-ol], for which the half-inhibitory concentration (IC50) at KRas^G12D is 1690 nM; in test [1] it was > 10000 nM; in test [2], 1610 nM; on KRas^G12R, 354 nM; in test [4], > 10000 nM; at KRas^G12V it was 152 nM. Also, the IC50 in test [5] worked out at 5950 nM. The inhibition at 0.1 µM is -1% in [3] and 5% in test [6].
As to `CCc1c(F)ccc2cc(O)cc(-c3ncc4c(N5CCC(C)C(F)(F)CC5)nc(OC[C@@]56CCCN5C[C@H](F)C6)nc4c3F)c12` (stereo partly drawn) [Example 581, 4-(4-(4,4-difluoro-5-methylazepan-1-yl)-8-fluoro-2-(((2R,7aS)-2-fluorotetrahydro-1H-pyrrolizin-7a(5H)-yl)methoxy)pyrido[4,3-d]pyrimidin-7-yl)-5-ethyl-6-fluoronaphthalen-2-ol], the IC50 is 160 nM on KRas^G12D; > 10000 nM in [1]; 1170 nM in test [2]; 41 nM at KRas^G12R; 1370 nM in test [4]; 39 nM on KRas^G12V. The molecule also returned an IC50 in test [5] of 527 nM. The figures for the inhibition at 0.1 µM in [3] and in [6] were -24% and 21%, respectively.
Take `CCc1c(F)ccc2cc(O)cc(-c3ncc4c(N5CCC6CCC(C6)C5)nc(OC[C@@]56CCCN5C[C@H](F)C6)nc4c3F)c12` (stereo partly drawn) [Example 550, 4-(4-(3-azabicyclo[4.2.1]nonan-3-yl)-8-fluoro-2-(((2R,7aS)-2-fluorotetrahydro-1H-pyrrolizin-7a(5H)-yl)methoxy)pyrido[4,3-d]pyrimidin-7-yl)-5-ethyl-6-fluoronaphthalen-2-ol]: the IC50 was 47 nM at KRas^G12D; > 10000 nM in test [1]; 293 nM in [2]; 423 nM in [7]; 8 nM at KRas^G12R; 590 nM in test [4]. Further, the figures for the IC50 (on KRas^G12V; in [5]; in test [6]) were 14 nM, 645 nM and 1370 nM, respectively.
For the molecule `CCc1c(F)ccc2cc(O)cc(-c3ncc4c(N5CCCC(N6CCCCS6(=O)=O)C5)nc(OC[C@@]56CCCN5C[C@H](F)C6)nc4c3F)c12` (stereo partly drawn) [Example 664, 2-(1-(7-(8-ethyl-7-fluoro-3-hydroxynaphthalen-1-yl)-8-fluoro-2-(((2R,7aS)-2-fluorohexahydro-1H-pyrrolizin-7a-yl)methoxy)pyrido[4,3-d]pyrimidin-4-yl)piperidin-3-yl)-1,2-thiazinane 1,1-dioxide], the IC50 at KRas^G12D is 7 nM; in test [1] it was > 10000 nM; in [2], 351 nM; in test [7], 152 nM; on KRas^G12R, 2 nM; in test [4], 567 nM. Moreover, the figures for the IC50 (on KRas^G12V; in test [5]) were 6 nM and 5 nM, respectively.
In the case of `CCc1c(F)ccc2cc(O)cc(-c3ncc4c(N5CCCO[C@@H](CCO)C5)nc(OC[C@@]56CCCN5C[C@H](F)C6)nc4c3F)c12` [Example 578, 5-ethyl-6-fluoro-4-(8-fluoro-2-(((2R,7aS)-2-fluorohexahydro-1H-pyrrolizin-7a-yl)methoxy)-4-((S)-2-(2-hydroxyethyl)-1,4-oxazepan-4-yl)pyrido[4,3-d]pyrimidin-7-yl)naphthalen-2-ol], the IC50 at KRas^G12D is 5 nM; in [1] it was > 10000 nM; in test [2] it was 258 nM; in test [7], 467 nM; at KRas^G12R, 2 nM; in test [3], 125 nM. Also, the half-maximal inhibitory concentration (IC50) in test [4] is 294 nM; on KRas^G12V, 8 nM; in [5], 1 nM.
Consider `CCc1c(F)ccc2cc(O)cc(-c3ncc4c(N[C@@H](C)c5cc(C(=O)N(C)C)nn5C)nc(OC[C@@]56CCCN5C[C@H](F)C6)nc4c3F)c12` [Example 650, 5-((S)-1-((7-(8-ethyl-7-fluoro-3-hydroxynaphthalen-1-yl)-8-fluoro-2-(((2R,7aS)-2-fluorohexahydro-1H-pyrrolizin-7a-yl)methoxy)pyrido[4,3-d]pyrimidin-4-yl)amino)ethyl)-N,N,1-trimethyl-1H-pyrazole-3-carboxamide], for which the IC50 is 14 nM at KRas^G12D; > 10000 nM in test [1]; 162 nM in test [2]; 847 nM in test [7]; 3 nM at KRas^G12R; 1320 nM in test [4]. In addition, the IC50 was < 2 nM on KRas^G12V, 256 nM in test [5] and 2410 nM in test [6].
As to `CCc1c(F)ccc2cc(O)cc(-c3ncc4c(NCC5(C)CNS(=O)(=O)N5)nc(OC[C@@]56CCCN5C[C@H](F)C6)nc4c3F)c12` (stereo partly drawn) [Example 609, 3-(((7-(8-ethyl-7-fluoro-3-hydroxynaphthalen-1-yl)-8-fluoro-2-(((2R,7aS)-2-fluorohexahydro-1H-pyrrolizin-7a-yl)methoxy)pyrido[4,3-d]pyrimidin-4-yl)amino)methyl)-3-methyl-1,2,5-thiadiazolidine 1,1-dioxide], the concentration for half-maximal inhibition (IC50) on KRas^G12D was < 2 nM; in [1], > 10000 nM; in test [2] it was 880 nM; at KRas^G12R it was < 2 nM; in test [4] it was 1390 nM; at KRas^G12V, < 2 nM. Also, in test [5], it took 92 nM to reach half-maximal inhibition (IC50).
For the molecule `CCc1c(F)ccc2cc(O)cc(-c3ncc4c(N5CCCOC(CCOC)C5)nc(OC[C@@]56CCCN5C[C@H](F)C6)nc4c3F)c12` (stereo partly drawn) [Example 601, 5-ethyl-6-fluoro-4-(8-fluoro-2-(((2R,7aS)-2-fluorohexahydro-1H-pyrrolizin-7a-yl)methoxy)-4-(2-(2-methoxyethyl)-1,4-oxazepan-4-yl)pyrido[4,3-d]pyrimidin-7-yl)naphthalen-2-ol], the concentration for half-maximal inhibition (IC50) is 14 nM on KRas^G12D; > 10000 nM in test [1]; 300 nM in test [2]; 344 nM in test [7]; 7 nM on KRas^G12R; 133 nM in test [3]. The 50% inhibitory concentration (IC50) was found to be 376 nM in [4], 12 nM at KRas^G12V and 26 nM in [5].
For `CCc1c(F)ccc2cc(O)cc(-c3ncc4c(N5CCCCC(n6ccnn6)C5)nc(OC[C@@]56CCCN5C[C@H](F)C6)nc4c3F)c12` (stereo partly drawn) [Example 830, 4-(4-(3-(1H-1,2,3-triazol-1-yl)azepan-1-yl)-8-fluoro-2-(((2R,7aS)-2-fluorotetrahydro-1H-pyrrolizin-7a(5H)-yl)methoxy)pyrido[4,3-d]pyrimidin-7-yl)-5-ethyl-6-fluoronaphthalen-2-ol], the IC50 was 5 nM at KRas^G12D; 7860 nM in test [1]; 267 nM in test [2]; 12 nM on KRas^G12R; 272 nM in test [4]; 5 nM on KRas^G12V. The half-inhibitory concentration (IC50) in test [5] was 188 nM.
In the case of `CCc1c(F)ccc2cc(O)cc(-c3ncc4c(N5CCCC6(C[C@H](O)[C@H](O)CO6)C5)nc(OC[C@@]56CCCN5C[C@H](F)C6)nc4c3F)c12` (stereo partly drawn) [Example 642, (3R,4S)-8-(7-(8-ethyl-7-fluoro-3-hydroxynaphthalen-1-yl)-8-fluoro-2-(((2R,7aS)-2-fluorohexahydro-1H-pyrrolizin-7a-yl)methoxy)pyrido[4,3-d]pyrimidin-4-yl)-1-oxa-8-azaspiro[5.5]undecane-3,4-diol], the half-inhibitory concentration (IC50) at KRas^G12D is 864 nM; in test [1], > 10000 nM; in test [2], > 10000 nM; at KRas^G12R it was 195 nM; in [4] it was > 10000 nM; at KRas^G12V, 235 nM. The same molecule came in with an IC50 in test [5] of 2870 nM.
